From ChEMBL document CHEMBL1127664, “Second-generation benzodiazepine CCK-B antagonists. Development of subnanomolar analogs with selectivity and water solubility” (J Med Chem, 1994)
pIC50: −log10 of the molar value. Values after ≈ are worked out from the molar mass of the structure shown.

Tests used:
[1] = biological target: T1, Cholecystokinin receptor type A (Rattus norvegicus, UniProt P30551); experiment: The compound was tested for binding activity against Cholecystokinin type A receptor from rat pancreas using [125]BH CCK-8s as radioligand.
T1 sequence (P30551 whole entry): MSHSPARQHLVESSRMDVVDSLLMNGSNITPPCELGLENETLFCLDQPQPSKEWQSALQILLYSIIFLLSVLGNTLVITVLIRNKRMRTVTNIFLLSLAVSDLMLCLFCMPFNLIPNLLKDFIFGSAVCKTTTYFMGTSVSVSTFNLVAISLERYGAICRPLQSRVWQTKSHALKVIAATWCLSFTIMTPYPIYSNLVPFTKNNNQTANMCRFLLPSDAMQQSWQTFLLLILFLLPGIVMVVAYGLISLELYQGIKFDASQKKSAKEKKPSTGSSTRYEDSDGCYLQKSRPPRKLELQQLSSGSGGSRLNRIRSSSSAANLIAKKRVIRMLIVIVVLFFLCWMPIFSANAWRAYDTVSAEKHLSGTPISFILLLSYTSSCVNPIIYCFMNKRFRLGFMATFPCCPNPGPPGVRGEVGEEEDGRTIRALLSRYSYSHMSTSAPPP

[2] = Equilibrium solubility determined after stirring the compound in buffered solution for more than 5 hours at pH 7.4; type: ADME
[3] = Equilibrium solubility determined after stirring the compound in buffered solution for more than 5 hours at pH 8.00; type: ADME
[4] = biological target: T1, Cholecystokinin receptor type A; experiment: The compound was tested for binding activity against Cholecystokinin type A receptor from rat pancreatic tissue using [125]BH CCK-A as radioligand
[5] = Equilibrium solubility determined after stirring the compound in buffered solution for more than 5 hours at pH 7; type: ADME
[6] = Equilibrium solubility determined after stirring the compound in buffered solution for more than 5 hours at pH 8.0; type: ADME

In the case of `CN1C(=O)[C@H](NC(=O)Nc2ccc(-c3nn[nH]n3)cc2)N=C(c2ccccc2)c2ccccc21`, the pIC50 [1] was 8.21.

`CN1C(=O)[C@H](NC(=O)Nc2ccc(-c3nc(=O)o[nH]3)cc2)N=C(c2ccccc2)c2ccccc21` showed a pIC50 [1] of 7.81.

`CC(C)CN1C(=O)[C@H](NC(=O)Nc2ccc(-c3nnn[nH]3)cc2)N=C(c2ccccc2)c2ccccc21` gave a pIC50 [1] of 6.42.

For `CN1C(=O)C(NC(=O)Nc2ccc(C(=O)O)cc2)N=C(c2ccccc2)c2ccccc21` (single isomer, unassigned), the solubility thermodynamic at 5 h [2] was 4700 µg/mL (≈ 11 mM) and the pIC50 [1] was 5.81.

`CC(C)CN1C(=O)[C@@H](NC(=O)Nc2ccc(-c3nn[nH]n3)cc2)N=C(c2ccccc2)c2ccccc21` gave a solubility thermodynamic at 5 h [3] greater than 11000 µg/mL, a pIC50 [4] of 5.84 and a solubility thermodynamic at 5 h [5] of 1400 µg/mL (≈ 2.83 mM).

`CN1C(=O)[C@@H](NC(=O)Nc2ccc(-c3nnn[nH]3)cc2)N=C(c2ccccc2)c2ccccc21` showed a solubility thermodynamic at 5 h [2] of 3740 µg/mL (≈ 8.27 mM) and a pIC50 [4] of 6.24.

For `Cc1ccc(NC(=O)N[C@H]2N=C(c3ccccc3)c3ccccc3N(C)C2=O)cc1`, the solubility thermodynamic at 5 h [2] was greater than 2 µg/mL and the pIC50 [1] was 6.13.

In the case of `CN1C(=O)[C@@H](NC(=O)Nc2ccc(-c3noc(O)n3)cc2)N=C(c2ccccc2)c2ccccc21`, the solubility thermodynamic at 5 h [2] was 410 µg/mL (≈ 0.875 mM), the pIC50 [1] was 6.01 and the solubility thermodynamic at 5 h [6] was 1660 µg/mL (≈ 3.54 mM).
